From patent US20070258912A1, “Use of Fluorescent Whitening Agents as Antimicrobials” (priority 2004, published 2007) come the findings set out here.

Like-named read-outs stand apart in the source and are kept apart here.

What all share (assay type): cell-based
One assay relates to Corynebacterium xerosis. Description: MIC in the agar incorporation test. On the procedure: (§1) Determination of Minimum Inhibitory Concentration (MIC Values) in the Agar Incorporation Test
(§2) 1% stock solutions of the substances are prepared in an appropriate solvent and diluted in serial dilutions 1:2 (to yield end concentrations in the agar of 500-1.9 ppm). 0.3 ml of each dilution step is mixed with 15 ml of nutrient medium while the latter is still liquid. After the nutrient medium has solidified, 10 μl of each test strain in 0.85% NaCl solution are spotted onto the agar medium.
(§3) The plates are incubated at 37° C. for 24 hours and then the highest dilution (lowest concentration) of the test substance at which growth is no longer observable is determined.
(§4) Test Organisms: Staphylococcus aureus ATCC 6583 Staphylococcus epidermidis ATCC 12228 Corynebacterium xerosis ATCC 373 Propionibacterium acnes ATCC Escherichia coli ATCC 10536 Salmonella choleraesuis ATCC Klebsiella pneumoniae ATCC *Candida albicans ATCC 10231
(§5) *Aspergillus niger ATCC 6275

The next assay concerns Klebsiella pneumoniae. Put plainly: MIC in the agar incorporation test. To be noted: Mueller Hinton agar, 24 hours at 37° C. The method, then:
as §1, §2, §3, §4, §5

Another assay has as its system Propionibacterium acnes. Put plainly: MIC in the agar incorporation test. The settings on record: Cutibacterium acnes, read-out: MIC Propionibacterium acnes. The method, then: as §1, §2, §3, §4, §5
A further assay relates to Salmonella choleraesuis. Put plainly: MIC in the agar incorporation test. To be noted: Salmonella enterica, Mueller Hinton agar, 24 hours at 37° C. On the procedure:
as §1, §2, §3, §4, §5

The test system of another assay is Staphylococcus aureus. Put plainly: MIC in the agar incorporation test. On the procedure:
as §1, §2, §3, §4, §5

The subject of another assay is Staphylococcus epidermis. Description: MIC in the agar incorporation test. On the procedure:
as §1, §2, §3, §4, §5

In assay [1] the test system is Corynebacterium minutissimum. Put plainly: MIC in the agar incorporation test. The settings on record: read-out: MIC Corynebacterium minutissimum.
The subject of a further assay is Actinomyces viscosus. Put plainly: MIC against oral microorganisms via broth dilution. On the procedure:
(§6) Determination of the Minimum Inhibition Concentration (MIC Value) Against Different Oral Microorganisms Via Broth Dilution
(§7) 1500 ppm stock solutions of the substances are prepared in ethanol and pipetted into the growth medium to yield concentrations between 0.94 and 15 ppm. Bacteria are taken from blood agar plates with cotton swabs and adjusted in the appropriate growth medium to yield an optical density corresponding to McFarland 0.5. This suspension is directly used in the case of F. nucleatum and P. nigrescens. For the other strains, the suspension is diluted 1:20. 0.1 ml of these bacterial suspensions are added to 2 ml of the substance solutions. After the incubation time, the tubes are assessed for growth (turbidity).
(§8) Test Organisms: *Actinobacillus actinomycetemcomitans ATCC 43718 *Stretococcus gordonii ATCC 10558 *Streptococcus mutans ATCC 33402 Actinomyces viscosus ATCC 43146 Fusobacterium nucleatum subsp. polymorphum ATCC 10953 Porphyromonas gingivalis ATCC 33277
(§9) Prevotella nigrescens ATCC 33563
For orientation: Broth dilution looks for growth in wells or tubes with falling amounts of substance.

Assay [2] deals with Fusobacterium nucleatum subsp. polymorphum. Description: MIC against oral microorganisms via broth dilution. The method, then: as §6, §7, §8, §9
Another assay relates to Porphyromnas gingivalis. Put plainly: MIC against oral microorganisms via broth dilution. The settings on record: read-out: MIC Porphyromnas gingivalis. The method, then:
as §6, §7, §8, §9

For the next assay, the system named is Prevotella nigrescens. Put plainly: MIC against oral microorganisms via broth dilution. The method, then:
as §6, §7, §8, §9

The next assay deals with Streptococcus gordonii. Description: MIC against oral microorganisms via broth dilution. The method, then: as §6, §7, §8, §9
A further assay deals with Streptococcus mutans. Put plainly: MIC against oral microorganisms via broth dilution. The method, then: as §6, §7, §8, §9
In a further assay the test system is Escherichia coli. Description: MIC in the agar incorporation test. The settings on record: ATCC10536, 24 h, read-out: MIC Escherichia coli. On the procedure:
as §1, §2, §3, §4, §5

[3] abbreviates: agar incorporation, Mueller Hinton agar, 24 hours at 37° C.
[4] abbreviates: ATCC373, 24 h, read-out: MIC Corynebacterium xerosis.
Where [5] appears, read: ATCC6583, 24 h, read-out: MIC Staphylococcus aureus.
The mark [6] stands for this setting: ATCC12228, 24 h, read-out: MIC Staphylococcus epidermis.
Setting [7] is: ATCC43146, read-out: MIC Actinomyces viscosus.
Setting [8] is: ATCC33563, read-out: MIC Prevotella nigrescens.
[9] abbreviates: ATCC10558, 24 h, read-out: MIC Streptococcus gordonii.
Where [10] appears, read: ATCC33402, 24 h, read-out: MIC Streptococcus mutans.

One may read the MIC as the least concentration at which growth counts as inhibited. In the case of `COc1cccc(/C=C/c2ccc(/C=C/c3cccc(OC)c3OCCCN(C)C)cc2)c1OCCCN(C)C` [formula 27], the MIC with Corynebacterium xerosis (ATCC373, agar incorporation, Mueller Hinton agar, 24 hours at 37° C., ATCC 373, read-out: MIC Corynebacterium xerosis) was found to be 3.1 µg/mL; with Klebsiella pneumoniae, 25 µg/mL; in the assay on Propionibacterium acnes (setting [3]) it was 6.3 µg/mL; with Salmonella choleraesuis it was 200 µg/mL; with Staphylococcus aureus (ATCC6583, agar incorporation, Mueller Hinton agar, 24 hours at 37° C., ATCC 6583, read-out: MIC Staphylococcus aureus) it was 12.5 µg/mL; in the assay with Staphylococcus epidermis (ATCC12228, agar incorporation, Mueller Hinton agar, 24 hours at 37° C., ATCC 12228, read-out: MIC Staphylococcus epidermis), 12.5 µg/mL. In addition, the MIC in [1] (setting [3]) came to 3.1 µg/mL; in the assay with Actinomyces viscosus (ATCC43146, broth dilution 0.94-15 ppm, 7-10 days at 37° C. anaerobically, ATCC 43146, read-out: MIC Actinomyces viscosus), 7.5 µg/mL; in assay [2] (ATCC10953, broth dilution 0.94-15 ppm, 7-10 days at 37° C. anaerobically, ATCC 10953, read-out: MIC Fusobacterium nucleatum subsp. polymorphum), 7.5 µg/mL; with Porphyromnas gingivalis (broth dilution 0.94-15 ppm, Columbia bouillon, 7-10 days at 37° C. anaerobically, ATCC 33277) it was 7.5 µg/mL; in the assay on Prevotella nigrescens (ATCC33563, broth dilution 0.94-15 ppm, Columbia bouillon, 7-10 days at 37° C. anaerobically, ATCC 33563, read-out: MIC Prevotella nigrescens), 3.8 µg/mL; in the assay on Streptococcus gordonii (ATCC10558, broth dilution 0.94-15 ppm, 24 h aerobically with 10% CO2, ATCC 10558, read-out: MIC Streptococcus gordonii), 15 µg/mL. In addition, in the assay on Streptococcus mutans (ATCC33402, broth dilution 0.94-15 ppm, 24 h aerobically with 10% CO2, ATCC 33402, read-out: MIC Streptococcus mutans), the minimal inhibitory concentration (MIC) worked out at 15 µg/mL.
For `COc1cccc(/C=C/c2ccc(-c3ccc(/C=C/c4cccc(OC)c4OCCCN(C)C)cc3)cc2)c1OCCCN(C)C` [formula 31], the minimum inhibitory concentration (MIC) with Corynebacterium xerosis (setting [4]) was 125 µg/mL; in the assay with Propionibacterium acnes (24 h), 7.8 µg/mL; in the assay with Staphylococcus aureus (setting [5]), 62.5 µg/mL; in the assay on Staphylococcus epidermis (setting [6]) it was 125 µg/mL; in assay [1] (24 h), 15.6 µg/mL; in the assay with Actinomyces viscosus (setting [7]), 3.8 µg/mL. For the same compound, the minimum inhibitory concentration (MIC) stood at 15 µg/mL in [2] (ATCC10953, read-out: MIC Fusobacterium nucleatum subsp. polymorphum); 1.9 µg/mL in the assay with Porphyromnas gingivalis; 3.75 µg/mL in the assay with Prevotella nigrescens (setting [8]); 11.2 µg/mL in the assay with Streptococcus gordonii (setting [9]); 7.5 µg/mL in the assay on Streptococcus mutans (setting [10]).
On to `C[n+]1ccccc1COc1ccccc1/C=C/c1ccc(-c2ccc(/C=C/c3ccccc3OCc3cccc[n+]3C)cc2)cc1` [formula 32], for which the minimum inhibitory concentration (MIC) was found to be 100 µg/mL in the assay on Corynebacterium xerosis (setting [4]), 100 µg/mL in the assay on Propionibacterium acnes (24 h), 50 µg/mL with Staphylococcus epidermis (setting [6]) and 200 µg/mL in assay [1] (24 h).
On to `C[n+]1ccc(Oc2ccccc2/C=C/c2ccc(-c3ccc(/C=C/c4ccccc4Oc4cc[n+](C)cc4)cc3)cc2)cc1` [formula 34], for which the minimum inhibitory concentration (MIC) in the assay with Corynebacterium xerosis (setting [4]) stood at 3.1 µg/mL; in the assay with Escherichia coli it was 50 µg/mL; with Propionibacterium acnes (24 h) it was 1.6 µg/mL; in the assay with Staphylococcus aureus (setting [5]), 3.1 µg/mL; in the assay with Staphylococcus epidermis (setting [6]), 3.1 µg/mL; in assay [1] (24 h), 3.1 µg/mL. Further, the minimal inhibitory concentration (MIC) came to 1.9 µg/mL in the assay on Actinomyces viscosus (setting [7]); 7.5 µg/mL in the assay on Porphyromnas gingivalis; 3.8 µg/mL in the assay on Prevotella nigrescens (setting [8]); 15 µg/mL in the assay on Streptococcus gordonii (setting [9]); 1.9 µg/mL with Streptococcus mutans (setting [10]).
